Source: PubChem BioAssay AID732 (Emory University Molecular Libraries Screening Center, 2007)
Where “and” joins values, the source holds several entries; their conditions need not be identical. Equal entries are not always repeated. Calls of active or inactive are those of the source. No rule for the calls is given here.

Tested on: in vivo angiogenesis, blood vessel count
Experiment: angiogenesis inhibition in living animals, in vivo study, HTS (AID 732);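 also: zebrafish embryos dosed at one day post fertilization; 0% = reference inhibitor and 100% = plate mean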
Conditions: stronger effect = lower value;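 tested at 30 µM in the well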

## NC1CCN(c2cccc(Cl)n2)CC1
  vessel count % control: 91.5% (inactive)

## COc1ccc2c(c1)c(CC(=O)O)c(C)n2Cc1ccc(Cl)cc1
  vessel count % control: 109% (inactive)

## O=C(O)CN(CCOCCOCCN(CC(=O)O)CC(=O)O)CC(=O)O
  vessel count % control: 103% (inactive)

## CCCN(CCC)[C@@H]1CCc2cccc(O)c2C1
  vessel count % control: 94.1% (inactive)

## CCN(CC)CC(=O)Nc1c(C)cccc1C
  vessel count % control: 73.7% (inactive)

## COc1ccc2c(c1)CCC1C2CC[C@@]2(C)C1CC[C@@H]2NCCCCCCN1C(=O)C=CC1=O (stereo not given in full)
  vessel count % control: 0% (inactive)

## CCCN(CCC)C1CCc2cccc(O)c2C1 (stereo not given)
  vessel count % control: 111% (inactive)

## O=C(O)c1ccccc1Nc1cccc(OCc2ccc3ccccc3n2)c1
  vessel count % control: 85.3% (inactive)

## CN(C)CCCO[C@@H]1[C@H]2OC(C)(C)O[C@H]2O[C@@H]1C(O)CO (stereo not given in full)
  vessel count % control: 88% (inactive)

## O=NN(CCCl)C(=O)NCCCl
  vessel count % control: 96.9% (inactive)

## O=C1NCN(c2ccccc2)C12CCN(CC1COc3ccccc3O1)CC2 (stereo not given)
  vessel count % control: 94.6% (inactive)

## CC(N)[C@H](O)c1ccc(O)c(O)c1 (stereo not given in full)
  vessel count % control: 106% (inactive)

## CC[C@@H]1Cc2cc(O)ccc2C2=C1c1ccc(O)cc1C[C@H]2CC
  vessel count % control: 99.8% (inactive)

## CNCCCC1c2ccccc2C=Cc2ccccc21
  vessel count % control: 96% (inactive)

## CCOC(=O)Nc1ccc(NCc2ccc(F)cc2)nc1N
  vessel count % control: 83.6% (inactive)

## CC1=C(CC(=O)O)c2cc(F)ccc2/C1=C\c1ccc(S(C)=O)cc1 (stereo not given)
  vessel count % control: 89.8% (inactive)

## CN1CCC2(CCN3CCc4c(oc5ccccc45)C3C2)N(C)C1=O (stereo not given)
  vessel count % control: 87.3% (inactive)

## Oc1[nH]c2ccccc2c1C1=Nc2ccc(Br)cc2/C1=N\OCCN1CCNCC1
  vessel count % control: 86.4% (inactive) and 40.6% (inactive)

## CC(C)C[C@H]1C(=O)N2CCC[C@H]2[C@]2(O)O[C@](NC(=O)[C@@H]3C=C4c5cccc6[nH]c(Br)c(c56)C[C@H]4N(C)C3)(C(C)C)C(=O)N12
  vessel count % control: 110% (inactive)

## O=C1NCN(c2ccccc2)C12CCN(CCCC(c1ccc(F)cc1)c1ccc(F)cc1)CC2
  vessel count % control: 84.4% (inactive)

## CN1Cc2c(N)cccc2C(c2ccccc2)C1 (stereo not given)
  vessel count % control: 112% (inactive)

## CNC(=O)[C@H]1O[C@@H](n2cnc3c(N)ncnc32)C(O)[C@H]1O (stereo not given in full)
  vessel count % control: 118% (inactive)

## O=S(=O)(O)C1CCNCC1
  vessel count % control: 89.3% (inactive)

## N[C@@H](Cc1c[nH]c2ccc(O)cc12)C(=O)O
  vessel count % control: 81.8% (inactive)

## O=C(O)CCc1nc(-c2ccccc2)c(-c2ccccc2)o1
  vessel count % control: 73.7% (inactive)

## C[C@]12CCC(=O)C=C1CC[C@@H]1[C@@H]2CC[C@]2(C)C(=O)CC[C@@H]12
  vessel count % control: 102% (inactive)

## c1ccc(CN2CCC3(CCCc4ccccc43)CC2)cc1
  vessel count % control: 128% (inactive)

## O=C1CC[C@@]2(O)C3Cc4ccc(O)c5c4C2(CCN3CC2CC2)[C@H]1O5 (stereo not given in full)
  vessel count % control: 73.7% (inactive)

## CN1CCc2cc(NC(=O)Nc3cccnc3)ccc21
  vessel count % control: 86.6% (inactive)

## c1cnc2c(c1)ccc1cccnc12
  vessel count % control: 0% (inactive)

## CC(C)NC[C@@H](O)COc1ccc(CC(N)=O)cc1
  vessel count % control: 94.2% (inactive)

## C[C@H](Cc1ccc(O)c(O)c1)[C@@H](C)Cc1ccc(O)c(O)c1
  vessel count % control: 124% (inactive)

## CS(=N)(=O)CC[C@H](N)C(=O)O (stereo not given in full)
  vessel count % control: 99.4% (inactive)

## Oc1ccc(Cn2cc[nH]c2=S)cc1
  vessel count % control: 92.9% (inactive)

## NC1CCc2cc(O)c(O)cc2C1 (stereo not given)
  vessel count % control: 94.8% (inactive)

## N=C(N)SCCc1cnc[nH]1
  vessel count % control: 150% (inactive)

## NC(=O)C(=O)O
  vessel count % control: 125% (inactive)

## Cc1cccc(C)c1OCC(N)C(C)C (stereo not given)
  vessel count % control: 112% (inactive)

## N[C@@H](CC(=O)O)C(=O)O
  vessel count % control: 94.7% (inactive)

## CC(C)N(CCC(C(N)=O)(c1ccccc1)c1ccccn1)C(C)C (stereo not given)
  vessel count % control: 99.1% (inactive) and 109% (inactive)
